In patent US20050142581A1, “Microrna as ligands and target molecules” (priority 2003, published 2005):
Oligonucleotides are written 5' to 3', each unit as a sugar letter and its base; * is a phosphorothioate linkage, no mark a phosphodiester; rarer units and linkages stand in square brackets, end groups in braces. Plain capitals give the bases only. e = 2'-O-(2-methoxyethyl) (MOE); [5mC] = 5-methylcytosine; d = 2'-deoxy (DNA)

System: human CD40 mRNA
Assay: Inhibition of CD40 mRNA levels by oligonucleotides (real-time RT-PCR)
Type: cell-based
Design: concentration or dose not given beside the values
Settings: 2'-MOE gapmers, 18 nucleotides, phosphorothioate throughout; averaged from three experiments
Procedure, shortened: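 Cells at ~80% confluency were transfected with oligonucleotide at 150 nM final using Lipofectin 3.75 μg/ml for 4 h and harvested 16 h after treatment. Poly(A)+ mRNA was taken for TaqMan real-time RT-PCR of CD40, and percent inhibition was derived from a standard curve of untreated control mRNA.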

Row | Substance | % Inhibition (Inhibition of CD40 mRNA Levels by Chimeric Phosphorothioate Oligonucleotides) [%]
1 | 19278 (eT*eT*eT*eT*dG*dA*dT*dA*dA*dA*dG*dA*dC*dC*eA*eG*e[5mC]*eA; antisense) [compound 19278] | 30.58
2 | 19234 (antisense eG*eA*eA*eG*dG*dC*dA*dT*dT*dC*dC*dG*dT*dT*eT*e[5mC]*eA*eG) [compound 19234] | 32.21
3 | 19236 (antisense e[5mC]*eT*e[5mC]*eT*dG*dT*dT*dC*dC*dA*dG*dG*dT*dG*eT*e[5mC]*eT*eA) [compound 19236] | 62.19
4 | 19225 (antisense e[5mC]*eT*eG*eG*dC*dA*dC*dA*dA*dA*dG*dA*dA*dC*eA*eG*e[5mC]*eA) [compound 19225] | 60.11
5 | 19271 (e[5mC]*e[5mC]*eA*e[5mC]*dA*dG*dA*dC*dA*dA*dC*dA*dT*dC*eA*eG*eT*e[5mC]; antisense) [compound 19271] | 11.22
6 | 19239 (antisense eG*eG*eT*eT*dG*dG*dG*dG*dT*dC*dG*dC*dA*dG*eT*eA*eT*eT) [compound 19239] | 19.40
7 | 19217 (DNA eG*eG*eT*e[5mC]*dA*dG*dC*dA*dA*dG*dC*dA*dG*dC*e[5mC]*e[5mC]*e[5mC]*eA; antisense) [compound 19217] | 74.73
8 | 19230 (antisense eG*eT*eG*e[5mC]*dA*dG*dT*dC*dA*dC*dT*dC*dA*dC*e[5mC]*eA*eG*eT) [compound 19230] | 82.04
9 | 19228 (antisense e[5mC]*eT*e[5mC]*eA*dC*dC*dA*dG*dT*dT*dT*dC*dT*dG*eT*e[5mC]*e[5mC]*eT) [compound 19228] | 22.30
10 | 19260 (antisense e[5mC]*eA*eT*eT*dG*dG*dA*dG*dA*dA*dG*dA*dA*dG*e[5mC]*e[5mC]*eG*eA) [compound 19260] | 41.31
11 | 19258 (antisense eT*eG*eG*eG*dC*dA*dG*dG*dG*dC*dT*dC*dG*dC*eA*eG*eA*eT) [compound 19258] | 0.00
12 | 19224 (antisense e[5mC]*eA*e[5mC]*eA*dA*dA*dG*dA*dA*dC*dA*dG*dC*dA*e[5mC]*eT*eG*eA) [compound 19224] | 40.25
13 | 19290 (e[5mC]*eT*eG*eT*dC*dT*dC*dT*dC*dC*dT*dG*dC*dA*e[5mC]*eT*eG*eA; antisense) [compound 19290] | 25.68
14 | 19279 (eT*eA*eT*eT*dG*dG*dT*dT*dG*dG*dC*dT*dT*dC*eT*eT*eG*eG; antisense) [compound 19279] | 49.26
15 | 19272 (e[5mC]*eT*eG*eG*dG*dG*dA*dC*dC*dA*dC*dA*dG*dA*e[5mC]*eA*eA*e[5mC]; antisense) [compound 19272] | 9.04
16 | 19253 (antisense eA*eA*eT*e[5mC]*dT*dG*dC*dT*dT*dG*dA*dC*dC*dC*e[5mC]*eA*eA*eA) [compound 19253] | 0.00
17 | 19242 (antisense e[5mC]*eT*eG*eA*dG*dG*dT*dG*dC*dC*dC*dT*dT*dC*eT*eG*e[5mC]*eT) [compound 19242] | 69.84
18 | 19257 (antisense eG*e[5mC]*eA*eG*dG*dG*dC*dT*dC*dG*dC*dA*dG*dA*eT*eG*eG*eT) [compound 19257] | 74.95
19 | 19292 (eA*eA*e[5mC]*eT*dG*dC*dC*dT*dG*dT*dT*dT*dG*dC*e[5mC]*e[5mC]*eA*e[5mC]; antisense) [compound 19292] | 63.34
20 | 19211 (DNA e[5mC]*e[5mC]*eA*eG*dG*dC*dG*dG*dC*dA*dG*dG*dA*dC*e[5mC]*eA*e[5mC]*eT; antisense) [compound 19211] | 75.71
21 | 19231 (antisense eA*e[5mC]*eT*e[5mC]*dT*dG*dT*dG*dC*dA*dG*dT*dC*dA*e[5mC]*eT*e[5mC]*eA) [compound 19231] | 37.59
22 | 19281 (eG*eT*e[5mC]*eG*dG*dG*dA*dA*dA*dA*dT*dT*dG*dA*eT*e[5mC]*eT*e[5mC]; antisense) [compound 19281] | 54.78
23 | 19273 (eT*e[5mC]*eA*eG*dC*dC*dG*dA*dT*dC*dC*dT*dG*dG*eG*eG*eA*e[5mC]; antisense) [compound 19273] | 0.00
24 | 19286 (eG*eT*eA*eA*dA*dG*dT*dC*dT*dC*dC*dT*dG*dC*eA*e[5mC]*eT*eG; antisense) [compound 19286] | 30.62
25 | 19245 (antisense eA*e[5mC]*eA*eG*dG*dT*dG*dC*dA*dG*dA*dT*dG*dG*eT*eG*eT*e[5mC]) [compound 19245] | 73.31
26 | 19246 (antisense eT*eT*e[5mC]*eA*dC*dA*dG*dG*dT*dG*dC*dA*dG*dA*eT*eG*eG*eT) [compound 19246] | 47.72
27 | 19226 (antisense eT*e[5mC]*e[5mC]*eT*dG*dG*dC*dT*dG*dG*dC*dA*dC*dA*eA*eA*eG*eA) [compound 19226] | 10.18
28 | 19282 (eG*eA*eT*e[5mC]*dG*dT*dC*dG*dG*dG*dA*dA*dA*dA*eT*eT*eG*eA; antisense) [compound 19282] | 0.00

Same assay, conditions: oligodeoxynucleotides with phosphorothioate backbones throughout; averages from three experiments

Row | Substance | % INHIB. (Inhibition of CD40 mRNA Levels by Phosphorothioate Oligodeoxynucleotides) [%]
29 | 18624 (DNA dG*dA*dC*dC*dA*dG*dG*dC*dG*dG*dC*dA*dG*dG*dA*dC*dC*dA; antisense) [compound 18624] | 28.09
30 | 18644 (DNA dC*dA*dG*dT*dG*dA*dA*dC*dT*dC*dT*dG*dT*dG*dC*dA*dG*dT; antisense) [compound 18644] | 5.30
31 | 18681 (DNA dG*dT*dT*dT*dG*dT*dG*dC*dC*dT*dG*dC*dC*dT*dG*dT*dT*dG; antisense) [compound 18681] | 2.43
32 | 18695 (DNA dG*dG*dA*dG*dC*dC*dA*dG*dG*dA*dA*dG*dA*dT*dC*dG*dT*dC; antisense) [compound 18695] | 0.00
33 | 18663 (DNA dG*dA*dG*dC*dG*dG*dT*dG*dC*dA*dG*dG*dA*dC*dA*dC*dA*dG; antisense) [compound 18663] | 0.00
34 | 18631 (DNA dG*dA*dT*dG*dG*dA*dC*dA*dG*dC*dG*dG*dT*dC*dA*dG*dC*dA; antisense) [compound 18631] | 0.00
35 | 18678 (DNA dT*dT*dG*dG*dT*dC*dT*dC*dA*dC*dA*dG*dC*dT*dT*dG*dT*dC; antisense) [compound 18678] | 0.00
36 | 18683 (DNA dC*dC*dA*dC*dA*dG*dA*dC*dA*dA*dC*dA*dT*dC*dA*dG*dT*dC; antisense) [compound 18683] | 0.00
37 | 18685 (DNA dT*dC*dA*dG*dC*dC*dG*dA*dT*dC*dC*dT*dG*dG*dG*dG*dA*dC; antisense) [compound 18685] | 0.00
38 | 18696 (DNA dT*dG*dG*dA*dG*dC*dC*dA*dG*dG*dA*dA*dG*dA*dT*dC*dG*dT; antisense) [compound 18696] | 0.00
39 | 18656 (DNA dT*dG*dG*dT*dG*dT*dC*dT*dG*dT*dT*dT*dC*dT*dG*dA*dG*dG; antisense) [compound 18656] | 0.00
40 | 18661 (DNA dG*dG*dA*dC*dA*dC*dA*dG*dC*dT*dC*dT*dC*dA*dC*dA*dG*dG; antisense) [compound 18661] | 0.00
41 | 18638 (DNA dT*dC*dC*dT*dG*dG*dC*dT*dG*dG*dC*dA*dC*dA*dA*dA*dG*dA; antisense) [compound 18638] | 0.00
42 | 18654 (DNA dC*dT*dG*dA*dG*dG*dT*dG*dC*dC*dC*dT*dT*dC*dT*dG*dC*dT; antisense) [compound 18654] | 15.63
43 | 18623 (DNA dC*dC*dA*dG*dG*dC*dG*dG*dC*dA*dG*dG*dA*dC*dC*dA*dC*dT; antisense) [compound 18623] | 30.71
44 | 18647 (DNA dT*dT*dC*dA*dC*dC*dG*dC*dA*dA*dG*dG*dA*dA*dG*dG*dC*dA; antisense) [compound 18647] | 0.00
45 | 18686 (DNA dC*dA*dC*dC*dA*dC*dC*dA*dG*dG*dG*dC*dT*dC*dT*dC*dA*dG; antisense) [compound 18686] | 23.31
46 | 18628 (DNA dG*dC*dA*dA*dG*dC*dA*dG*dC*dC*dC*dC*dA*dG*dA*dG*dG*dA; antisense) [compound 18628] | 0.00
47 | 18671 (DNA dG*dA*dC*dT*dG*dG*dG*dC*dA*dG*dG*dG*dC*dT*dC*dG*dC*dA; antisense) [compound 18671] | 2.71
48 | 18645 (DNA dA*dT*dT*dC*dC*dG*dT*dT*dT*dC*dA*dG*dT*dG*dA*dA*dC*dT; antisense) [compound 18645] | 0.00
